Results as given in patent US9808434B2, “Compound for treating cancer and diabetes” (CITY OF HOPE, priority 2011, dated 2017).

Experiments:
human VEGF promoter = assay: VEGF promoter luciferase reporter in U251; format: cell-based; settings: U251, 1 or 3 μM, 24 hours
Protocol: U251 cells expressing luciferase reporter containing human VEGF promoter were incubated with various concentrations of COH-SR4 (0, 1, or 3 μM) for 24 hours. Luciferase activity was determined and normalized to the cell number for each treatment. Data were represented as a ratio to vehicle control that was treated by DMSO.

H358 and H520 cells = assay: COH-SR4 cytotoxicity after siRNA knock-down of AMPK, XTT; format: cell-based, human
Protocol: The effects of COH-SR4 on cell viability were assessed in quadruplicate samples using the 2,3-bis (2-methoxy-4-nitro-5-sulfophenly)-5-[(phenylamino) carbonyl]-2H-tetrazolium hydroxide (XTT) assay. Briefly, 20,000 cells were seeded and incubated in 96-well, flat-bottomed plates in 10% FBS-supplemented culture medium 24 h before drug treatment. After 24 h incubation at 37° C., cells were then exposed to the indicated concentrations of drug at 37° C. in 5% CO2 for 48 h. The medium was removed and replaced with 100 μL fresh medium containing 50 μL of the activated-XTT solution to each well, and the cells were further cultured in the CO2 incubator at 37° C. for 4 h. Absorbance was determined on a plate reader at 475 nm.
AMPK was knocked down by siRNA and assessed the impact on COH-SR4-induced cytotoxicity. […] Thus, the in-vitro analyses of critical signaling proteins of cell proliferation further supported the anti-cancer effects of COH-SR4 in lung cancer cells.

[1] = COH-SR4 in mice serum, HPLC analysis; format: in vivo, mouse; settings: 4 mg/kg oral
Protocol: Hsd: Athymic nude nu/nu mice obtained from Harlan, Indianapolis, Ind. were used for the oral administration of COH-SR4 on lung cancer progression in in-vivo xenograft model. Twelve 10-weeks-old mice were divided into two groups of 6 animals (treated with corn oil (vehicle), and COH-SR4 4 mg/kg b.w.). All animals were subcutaneously injected with 2×10^6 H358 cells in 100 μL of PBS into one flank of each mouse. Treatment was started 10 days after the implantation of cells to see palpable tumor growth. Treatment consisted of 0.1 mg (4 mg/kg b.w.) of COH-SR4/mice in 200 μL corn oil by oral gavage alternate day. Control groups were treated with 200 μL corn oil by oral gavage alternate day. Animals were examined daily for signs of tumor growth and body weights were recorded. […] Tumors were measured in two dimensions using calipers. […] (FIG. 81B). […] Photographs of animals were taken at day 1, day 10, day 14, day 18, day 30 and day 60 after subcutaneous injection, are shown for all groups (FIG. 81D). The absorption of orally administered COH-SR4 in mice was assessed.

[2] = COH-SR4 in mice serum, LC-MS/MS; format: in vivo, mouse; settings: 4 mg/kg b.w. oral, alternate day, 8 weeks; blood within 2 h of final dose
Protocol: Mice (n=3 each for control and COH-SR4 treatment) were administered either 0.2 mL corn oil or 100 μg COH-SR4/0.2 mL corn oil/mice (4 mg/kg b.w.) by oral gavage on alternate days for 8 weeks. On the last day, the blood was collected within 2 h after final dosage. To 50 μL serum was added 0.5 μL 5 μg/μL 6D-SR4 standard in DMSO and 500 μL ethyl acetate. The samples were vortexed for 1 min and then spun down in a bench-top centrifuge for 2 min. Then 400 μL of the organic layer was collected, evaporated to dryness and redisolved in 500 μL methanol for analysis. After an initial concentration test, 50 μL were taken and diluted to 2 mL with methanol for final analysis. […]
COH-SR4 and 6D-SR4 were separated by HPLC using an Agilent Zorbax 0.5×150 mm C18, 5 μm column with a flow rate of 50 μL/min and a gradient of 65% B to 95% B over 4 min, then 2 min at 95% B and 1 min back to 65% B. Buffer A was 5 mM ammonium formate and buffer B was 5 mM ammonium formate in methanol. The elute from the column was introduced into an Agilent 6410 triple quadrupole tandem mass spectrometer by electrospray ionization (ESI) through a capillary maintained at 4 kV, using 6 L/min nitrogen nebulizing gas at 350° C. and 15 psi, fragmentor voltage=190 V. The following transitions were monitored in positive ion mode: 344>127.1 and 355>130.1 (collision energy=28 V), 344>161.9 and 355>164.9 (C.E.=20 V) for COH-SR4 and 6dSR4. […]

H358 lung cancer = format: in vivo; settings: day 60; 4 mg/kg b.w. oral alternate day; control 2.02±0.3 g
Protocol: For lung cancer studies, twelve 10-weeks-old mice were divided into two groups of 6 animals (treated with corn oil (vehicle), and COH-SR4 compound 4 mg/kg b.w.). All animals were injected with 2×10^6 H358 cells suspensions in 100 μL of PBS, subcutaneously into one flank of each mouse. At the same time, animals were randomized treatment groups as well as control groups. Treatment was started 10 days after the implantation to see palpable tumor growth. Treatment consisted of 0.1 mg of COH-SR4/m ice in 200 μL corn oil by oral gavage alternate day. Control groups were treated with 200 μL corn oil by oral gavage alternate day. Animals were examined daily for signs of tumor growth. Tumors were measured in two dimensions using calipers. Photographs of animals were taken at day 1, day 10, day 14, day 18, day 30, and day 60 after subcutaneous injection.
Hsd: Athymic nude nu/nu mice obtained from Harlan, Indianapolis, Ind. were used for the oral administration of COH-SR4 on lung cancer progression in in-vivo xenograft model. Twelve 10-weeks-old mice were divided into two groups of 6 animals (treated with corn oil (vehicle), and COH-SR4 4 mg/kg b.w.). […] Animals were examined daily for signs of tumor growth and body weights were recorded. […] Tumors were measured in two dimensions using calipers. […] The absorption of orally administered COH-SR4 in mice was assessed.

HAVSMC = assay: Colony formation assay, HAVSMC; format: cell-based, human; settings: for colony forming potential: vs untreated control
Protocol: Cell survival was evaluated using a standard colony-forming assay. In total, 1×10^5 cells/mL were incubated with COH-SR4 (1.5 μM or 5 μM) or elesclomol (5 μM) for 24 h, and aliquots of 50 or 100 μL were added to 60 mm size petri dishes, containing 4 mL culture medium. After 7 or 10 days, adherent colonies were fixed, stained with 0.5% methylene blue for 30 min and colonies were counted using the Innotech Alpha Imager HP (91).

O=C(Nc1cc(Cl)cc(Cl)c1)Nc1cc(Cl)cc(Cl)c1 [COH-SR4, 1,3-bis(3,5-dichlorophenyl) urea]
luciferase expression (VEGF promoter) (human VEGF promoter): inhibited luciferase expression of VEGF protein
cytotoxicity of COH-SR4 after knock-down of AMPK (H358 and H520 cells): significant reversal in the cytotoxicity
serum concentration [1]: 1100 ± 300 nM
serum concentration [2]: 342 ± 44 ng/mL
serum concentration (equivalent) [2]: 1000 ± 220 nM
tumor weight (H358 lung cancer): 0.77 ± 0.2 g
colony formation in normal cells (HAVSMC; 1.5 μM): did not result in significant inhibition of colony formation
colony forming potential (HAVSMC; Example 18, FIG. 65B): 96±4%
colony forming potential (HAVSMC; FIG. 67B, 5 μM): 95±4%
